Values quoted from earlier work, collected in article PMC4104431 (Nuclear medicine and biology, 2014).

Tests used:
[1] = target: CXCR4 (Homo sapiens, UniProt P61073)
Sequence of CXCR4 (P61073 whole entry): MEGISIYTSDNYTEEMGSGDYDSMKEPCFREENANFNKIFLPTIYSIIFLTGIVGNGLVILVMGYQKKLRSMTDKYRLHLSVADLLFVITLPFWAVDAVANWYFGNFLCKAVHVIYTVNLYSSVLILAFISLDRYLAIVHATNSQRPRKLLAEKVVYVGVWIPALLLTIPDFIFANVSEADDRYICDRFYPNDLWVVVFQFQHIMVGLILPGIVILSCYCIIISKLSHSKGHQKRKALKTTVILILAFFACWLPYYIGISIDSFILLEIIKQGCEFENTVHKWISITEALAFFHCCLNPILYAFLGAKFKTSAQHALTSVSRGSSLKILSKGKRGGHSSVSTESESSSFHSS

SMILES | Fold increase in affinity for CXCR4 when bound to Cu(II) [1] [fold] | Metabolic stability
c1cc(CN2CCCNCCNCCCNCC2)ccc1CN1CCCNCCNCCCNCC1 [AMD3100] | 7 | metabolically stable
c1ccc(CNCc2ccc(CN3CCCNCCNCCCNCC3)cc2)nc1 [AMD3465] | – | metabolically stable
